Counter-ions that a name gives are not always drawn.
Tests used:
[1] = target: T1, human mGlu2 receptor (Homo sapiens, UniProt Q14416); assay: [35S]GTPγS binding assay (mGluR2 negative allosteric modulation); format: biochemical; details: for IC50: membranes from CHO cells transfected with human mGlu2 receptor, glutamate 60 μM, pIC50 = −log IC50 (M), read-out: GTPγS - hmGluR2 anGT pIC50 (converted); for Emax: relative maximal effect: maximal % inhibition relative to the control glutamate response, read-out: GTPγS - hmGluR2 anGT Emax
T1 construct: expressed in transfected cells; host or cells: CHO cells (membrane preparation)
T1 sequence (Q14416 19-872): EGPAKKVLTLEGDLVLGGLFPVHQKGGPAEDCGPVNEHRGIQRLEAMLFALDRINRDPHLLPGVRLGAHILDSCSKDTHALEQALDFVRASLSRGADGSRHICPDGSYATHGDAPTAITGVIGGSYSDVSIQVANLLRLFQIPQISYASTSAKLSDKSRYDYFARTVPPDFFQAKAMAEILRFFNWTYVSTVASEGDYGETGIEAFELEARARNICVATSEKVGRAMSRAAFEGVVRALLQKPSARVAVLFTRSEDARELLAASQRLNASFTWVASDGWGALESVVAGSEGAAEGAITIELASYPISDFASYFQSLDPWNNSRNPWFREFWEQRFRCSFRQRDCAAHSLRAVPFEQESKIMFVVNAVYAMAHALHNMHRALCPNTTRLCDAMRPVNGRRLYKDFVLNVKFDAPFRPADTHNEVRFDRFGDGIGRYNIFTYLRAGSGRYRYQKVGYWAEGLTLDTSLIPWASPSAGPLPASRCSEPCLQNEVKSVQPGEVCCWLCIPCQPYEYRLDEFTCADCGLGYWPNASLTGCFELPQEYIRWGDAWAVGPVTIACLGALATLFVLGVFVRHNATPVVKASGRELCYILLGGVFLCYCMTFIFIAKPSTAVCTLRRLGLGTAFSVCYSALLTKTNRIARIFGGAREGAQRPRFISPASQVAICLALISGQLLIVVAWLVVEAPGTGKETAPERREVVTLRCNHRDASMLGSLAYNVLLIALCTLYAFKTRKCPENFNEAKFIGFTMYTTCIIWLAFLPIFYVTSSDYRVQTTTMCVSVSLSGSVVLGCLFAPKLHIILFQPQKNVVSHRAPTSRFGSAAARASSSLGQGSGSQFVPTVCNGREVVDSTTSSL
Description: 1) [^35S]GTPγS binding assay
The [^35S]GTPγS binding assay is a functional membrane-based assay used to study G-protein coupled receptor (GPCR) function whereby incorporation of a non-hydrolysable form of GTP, [^35S]GTPγS (guanosine 5′-triphosphate, labelled with […] ^35S), is measured. The G-protein a subunit catalyzes the exchange of guanosine 5′-diphosphate (GDP) by guanosine triphosphate (GTP) and on activation of the GPCR by an agonist, [^35S]GTPγS, becomes incorporated and cannot be cleaved to continue the exchange cycle (Harper (1998) Current Protocols in Pharmacology 2.6.1-10, John Wiley & Sons, Inc.). […] Here we describe the use of the [^35S]GTPγS binding assay using membranes from cells transfected with the human mGlu2 receptor and adapted from Schaffhauser et al. (Molecular Pharmacology, 2003, […]) for the detection of the negative allosteric modulation (NAM) properties of the compounds of this invention.
CHO-cells were cultured to pre-confluence and stimulated with 5 mM butyrate for 24 h. Cells were then collected by scraping in PBS and cell suspension was centrifuged (10 min at 4000 RPM in benchtop centrifuge). Supernatant was discarded and pellet gently resuspended in 50 mM Tris-HCl, pH 7.4 by mixing with an Ultra Turrax homogenizer. The suspension was centrifuged at 12,400 RPM (Sorvall F14S-6x250Y) for 10 minutes and the supernatant discarded. The pellet was homogenized in 5 mM Tris-HCl, pH 7.4 using an Ultra Turrax homogenizer and centrifuged again (13,000 RPM, 20 min, 4° C.). The final pellet was resuspended in 50 mM Tris-HCl, pH 7.4 and stored at −80° C. in appropriate aliquots before use. Protein concentration was determined by the Bradford method (Bio-Rad, USA) with bovine serum albumin as standard.
Measurement of mGluR2 negative allosteric modulatory activity of test compounds was performed as follows. Test compounds and glutamate were diluted in assay buffer containing 10 mM HEPES acid, 10 mM HEPES salt, pH 7.4, 100 mM NaCl, 3 mM MgCl2 and 10 μM GDP. Human mGlu2 receptor-containing membranes were thawed on ice and diluted in assay buffer supplemented with 18 μg/ml saponin. […] After addition of [^35S]GTPγS (f.c. 0.1 nM), assay mixtures were shaken briefly and further incubated to allow [^35S]GTPγS incorporation on activation (30 minutes, 30° C.). Final assay mixtures contained 7 μg of membrane protein in 10 mM HEPES acid, 10 mM HEPES salt, pH 7.4, 100 mM NaCl, 3 mM MgCl2, 10 μM GDP and 10 μg/ml saponin. Total reaction volume was 200 μl. Reactions were terminated by rapid filtration through Unifilter-96 GF/B plates (Perkin Elmer, Massachusetts, USA) using a 96-well filtermate universal harvester. Filters were washed 6 times with ice-cold 10 mM NaH2PO4/10 mM Na2HPO4, pH 7.4. Filters were then air-dried, and 30 μl of liquid scintillation cocktail (Microscint-O) was added to each well. Membrane-bound radioactivity was counted in a Topcount.
The concentration-response curves of representative compounds of the present invention were generated using the Lexis software interface (developed at J&J). Data were calculated as % of the control glutamate response, defined as the response that is generated upon addition of an EC80-equivalent concentration of glutamate.

melting point	IC50 [1] [M]	Emax [1] [%]	Compound
> 300 °C	4.07e-07	109	C[C@H]1CN(c2ccc(C(F)(F)F)cc2)C(=O)c2c(-c3ccnc(N4CC(O)C4)c3)cnn21 [compound 101]
141.3 °C	2.24e-08	107	CCOc1nc(N2C[C@H](C)n3ncc(-c4ccncc4)c3C2=O)ccc1C(F)(F)F [compound 208]
48.2 °C	2.51e-08	106	COCc1cc(N2C[C@H](C)n3ncc(-c4ccnc(C)c4)c3C2=O)ccc1C(F)(F)F [compound 158]
73.3 °C	2.82e-08	106	Cc1cc(-c2cnn3c2C(=O)N(c2ccc(C(F)(F)F)c(F)c2)C[C@@H]3C)cc(C)n1 [compound 61]
273.9 °C	2.63e-08	103	COc1cc(N2C[C@H](C)n3ncc(-c4ccncc4)c3C2=O)ccc1C(F)(F)F [compound 64]
161.4 °C	4.07e-09	108	Cc1cc(-c2cnn3c2C(=O)N(c2ccc(C(F)(F)F)c(Cl)n2)C[C@@H]3C)ccn1 [compound 188, (7S)-5-[6-chloro-5-(trifluoromethyl)-2-pyridyl]-7-methyl-3-(2-methyl-4-pyridyl)-6,7-dihydropyrazolo[1,5-a]pyrazin-4-one]
218.9 °C	9.77e-08	103	C[C@H]1CN(c2ccc(C(F)(F)F)cc2)C(=O)c2c(-c3ccnc(N)c3)cnn21 [compound 71, (7S)-3-(2-Aminopyridin-4-yl)-7-methyl-5-[4-(trifluoromethyl)phenyl]-6,7-dihydropyrazolo[1,5-a]pyrazin-4(5H)-one]
170.3 °C	5.5e-09	107	C[C@H]1CN(c2ccc(Cl)c(Cl)c2)C(=O)c2c(-c3ccnc(F)c3)cnn21 [compound 164]
135.1 °C	6.92e-07	100	CC[C@@H]1CN(c2ccc(C(F)(F)F)cc2)C(=O)c2c(-c3ccnc(C)c3)cnn21 [compound 129]
149.8 °C	1.86e-08	107	C[C@H]1CN(c2ccc(Cl)c(Cl)c2)C(=O)c2c(-c3ccnc(C#N)c3)cnn21 [compound 109]
93 °C	1.1e-08	104	COc1cc(N2C[C@H](C)n3ncc(-c4cc(C)nc(C)c4)c3C2=O)ccc1C(F)(F)F [compound 51]
146.8 °C	9.55e-09	103	C[C@H]1CN(c2ccc(C(F)(F)F)c(Cl)c2)C(=O)c2c(-c3ccncc3)cnn21 [compound 50]
294 °C			C[C@H]1CN(c2ccc(C(F)(F)F)cc2)C(=O)c2c(-c3ccnc(N4CCCCC4)c3)cnn21 (as salt: HCl) [compound 107]
185.9 °C	1.29e-07	102	Cc1cc(-c2cnn3c2C(=O)N(c2ccc(C(F)F)cc2)C[C@@H]3C)ccn1 [compound 162]
158.8 °C	1.7e-05	94	Cc1cc(-c2cnn3c2C(=O)N(c2ccc(C(F)(F)F)cc2)CC3(C)C)ccn1 [compound 171]
101.8 °C	8.13e-08	103	C[C@H]1CN(c2ccc(C(F)(F)F)c(C#N)c2)C(=O)c2c(-c3ccncc3)cnn21 [compound 155]
> 300 °C	2.45e-08	104	COCC1CN(c2ccc(Cl)c(Cl)c2)C(=O)c2c(-c3ccnc(C)c3)cnn21 (centres unmarked) [compound 143]
> 300 °C	1.05e-08	107	Cc1cc(-c2cnn3c2C(=O)N(c2ccc(C(F)(F)F)cc2)CC3CF)ccn1 (centres unmarked) [compound 52, 7-(Fluoromethyl)-3-(2-methyl-4-pyridyl)-5-[4-(trifluoromethyl)phenyl]-6,7-dihydropyrazolo[1,5-a]pyrazin-4-one]
282.3 °C			COCc1cc(-c2cnn3c2C(=O)N(c2ccc(C(F)(F)F)cc2)C[C@@H]3C)ccn1 (as salt: HCl) [compound 22]

melting point	IC50 [1] [M]	Emax [1] [%]	Compound
139.8 °C	5.89e-07	104	CC(O)c1cc(-c2cnn3c2C(=O)N(c2ccc(C(F)(F)F)cc2)C[C@@H]3C)ccn1 (some centres unmarked) [compound 128]
157.6 °C	1.2e-06	103	C[C@H]1CN(c2ccc(C(F)(F)F)cc2)C(=O)c2c(-c3ccc(C#N)nc3)cnn21 [compound 151]
173.08 °C	5.25e-08	106	CC(C)Nc1cc(-c2cnn3c2C(=O)N(c2ccc(C(F)(F)F)cc2)C[C@@H]3C)ccn1 [compound 266]
57.5 °C	1.86e-08	105	COc1cc(-c2cnn3c2C(=O)N(c2ccc(C(F)(F)F)cc2)C[C@@H]3C)cc(C)n1 [compound 145]
199 °C	1.62e-08	102	C[C@H]1CN(c2ccc(S(F)(F)(F)(F)F)cc2)C(=O)c2c(-c3ccncc3)cnn21 [compound 56]
134.4 °C	1.7e-08	102	CC[C@H]1CN(c2ccc(C(F)(F)F)cc2)C(=O)c2c(-c3ccnc(C)c3)cnn21 [compound 130]
128.1 °C	1.23e-07	108	C[C@H]1CN(c2ccc(C(F)(F)F)cc2)C(=O)c2c(-c3ccnc(N4CCOCC4)c3)cnn21 [compound 108]
157.75 °C (dec.)	4.07e-08	102	COc1cc(-c2cnn3c2C(=O)N(c2ccc(C(F)(F)F)c(C#N)c2)C[C@@H]3C)ccn1 [compound 88]
163.8 °C	3.16e-08	101	C[C@H]1CN(c2ccc(C(F)(F)F)c(F)c2)C(=O)c2c(-c3ccncc3)cnn21 [compound 60]
191.5 °C			CCOc1cc(-c2cnn3c2C(=O)N(c2ccc(Cl)c(Cl)c2)C[C@@H]3C)ccn1 (as salt: HCl) [compound 133]
124 °C	2.75e-08	108	C[C@H]1CN(c2ccc(C(F)(F)F)cc2)C(=O)c2c(-c3ccnc(N4CCCC4)c3)cnn21 [compound 105]
88 °C	1.07e-07	103	Cc1cc(-c2cnn3c2C(=O)N(c2ccc(Cl)cc2)C[C@@H]3C)cc(C)n1 [compound 72]
> 300 °C			CCOc1ccc(N2C[C@H](C)n3ncc(-c4ccnc(C)c4)c3C2=O)cc1Cl (as salt: HCl) [compound 17]
173.9 °C			CC(C)Oc1cc(-c2cnn3c2C(=O)N(c2ccc(C(F)(F)F)cc2)C[C@@H]3C)ccn1 (as salt: HCl) [compound 138]
193.8 °C			CC(C)Oc1cc(-c2cnn3c2C(=O)N(c2ccc(Cl)c(Cl)c2)C[C@@H]3C)ccn1 (as salt: HCl) [compound 137]
293.6 °C			COc1ccc(N2C[C@H](C)n3ncc(-c4ccnc(C)c4)c3C2=O)cc1Cl (as salt: HCl) [compound 20]
294 °C			COc1ccc(N2C[C@H](C)n3ncc(-c4ccnc(C)c4)c3C2=O)cc1 (as salt: HCl) [compound 38]
> 300 °C			Cc1cc(-c2cnn3c2C(=O)N(c2ccc(SC(F)(F)F)cc2)C[C@@H]3C)ccn1 (as salt: HCl) [compound 236]
	2.75e-07	105	CNc1cc(-c2cnn3c2C(=O)N(c2ccc(Cl)c(Cl)c2)CC3CF)ccn1 (single isomer, unassigned) [compound 184]

— patent US10106542B2, “Substituted 6,7-dihydropyrazolo[1,5-a]pyrazines as negative allosteric modulators of mGluR2 receptors” (Janssen Pharmaceutica NV, priority 2013, dated 2018)
